The values that follow are results of earlier work, collected in patent US20090176772A1, “METHOD OF REVERSING LEFT VENTRICULAR REMODELING” (priority 2004, published 2009).

The test system of the data set is LV reverse remodeling. Conditions: historical data, Sabbah et al. (1994) Circ. 89:2852-2859; cited from earlier work.

Take `CCOC(=O)[C@H](CCc1ccccc1)N[C@@H](C)C(=O)N1CCC[C@H]1C(=O)O` [enalapril]: the “Ability to reduce LV end-diastolic volume (FIG. 1)” value was “neither ranolazine, enalapril, nor metoprolol were independently able to reduce LV end-diastolic volume” and the “Ability to reduce LV end-systolic volume (FIG. 2)” value is “neither ranolazine, enalapril, nor metoprolol appear to independently reduce LV end-systolic volume”.

On to `COCCc1ccc(OCC(O)CNC(C)C)cc1` (stereo not shown) [metoprolol], for which the “Ability to reduce LV end-diastolic volume (FIG. 1)” value is reported as “neither ranolazine, enalapril, nor metoprolol were independently able to reduce LV end-diastolic volume” and the “Ability to reduce LV end-systolic volume (FIG. 2)” value is listed as “neither ranolazine, enalapril, nor metoprolol appear to independently reduce LV end-systolic volume”.
